This is an account of results in patent US20040185128A1, “Use of an extract of the root of balloon-flower for preventing and treating a degenerative brain disease or for enhancing memory” (priority 2001, published 2004).

For experiment [1], the target named is T1, recombinant human muscarinic acetylcholine receptor subtype 1 (mAChR-M1) (Homo sapiens, UniProt P11229).
T1 construct: purchased BSR BSR-MM1H; host or cells: Chinese Hamster Ovary (CHO) cells
T1 sequence (P11229 1-460): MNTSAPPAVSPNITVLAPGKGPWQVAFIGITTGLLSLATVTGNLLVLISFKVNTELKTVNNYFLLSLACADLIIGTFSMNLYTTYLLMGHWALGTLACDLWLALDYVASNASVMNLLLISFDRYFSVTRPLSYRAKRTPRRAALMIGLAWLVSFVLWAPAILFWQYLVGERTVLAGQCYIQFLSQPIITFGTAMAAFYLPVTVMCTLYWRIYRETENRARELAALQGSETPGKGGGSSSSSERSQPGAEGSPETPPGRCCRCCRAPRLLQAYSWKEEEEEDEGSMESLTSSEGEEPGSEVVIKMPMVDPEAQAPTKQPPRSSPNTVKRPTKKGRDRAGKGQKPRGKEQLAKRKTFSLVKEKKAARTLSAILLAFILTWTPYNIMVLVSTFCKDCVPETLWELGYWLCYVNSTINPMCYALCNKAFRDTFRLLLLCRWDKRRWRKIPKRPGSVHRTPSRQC
Kind of experiment: Inhibition of [3H]N-methyl-scopolamine binding to muscarinic acetylcholine receptor subtype 1. The conditions noted are these: control compound, read-out: concentration inhibiting the ligand binding to receptor by 50%.
Method: The ability of each of the compositions obtained in Example 1 in enhancing acetylcholine activity was measured by examining to what extent the binding of a ligand to muscarin acetylcholine receptor subtype 1(M1) is suppressed. That is, an excess amount of a radioactive isotope-labeled ligand was allowed to react with the receptor, unbound ligand was removed by filtering using a glass fiber filter and the amount of the isotope-labeled ligand on the filter was measured to quantify the amount of ligand bound to receptor, and thus, the effects of the compositions of the present invention was determined.
As the receptor, recombinant human muscarinic acetylcholine receptor subtype 1(mAChR-M1, BSR-MM1H, BSR) expressed in Chinese Hamster Ovary (CHO) cells was used. 250 μl of a deep-frozen (−70° C.) receptor fraction was suspended in 10 ml of phosphate buffer saline (PBS) (pH 7.4) and the concentration of the protein was adjusted to 130 μg/ml.
50 μl of 0.5 nM [^3H] N-methyl-scopolamine (24,605 DPM) (NEN, NET-636) and 10 μl of a test composition were added to each well of 96-well microtiter plate (Inotech harvester). […] The filtermat was dried in a microwave oven and the amount of the ligand bound to the receptor was evaluated by determining the radioactivity with the liquid scintillation counter (MicroBeta 1450 Plus; Wallac, Finland). […]

The target in experiment [2] is T2, NMDA-receptor (glycine site) (Rattus norvegicus, UniProt P35439).
T2 construct: Preparation of NMDA Receptor Fraction from Rat's Cerebrum; from tissue; host or cells: forebrain membrane fraction of male Sprague-Dawley rat
The experiment is described as follows: Inhibition of [3H]MDL 105,519 binding to the glycine site of NMDA receptor (rat forebrain fraction). As to conditions: control compound, read-out: concentration inhibiting the ligand binding to receptor by 50%. The source says: The fact that the compositions of the present invention suppresses neuron damage was confirmed as follows by examining the activity thereof in suppressing the binding formation of NMDA-receptor (glycine site) bound. NMDA (N-Methyl-D-Aspartate) which acts as an excitatory neurotransmitter induces neuron damage.
That is, an excess amount of a radioactive isotope-labeled ligand was allowed to react with the receptor, unbound ligand was removed by filtering using a glass fiber filter and the amount of the isotope-labeled ligand on the filter was measured to quantify the amount of ligand bound to receptor, and thus, the effects of the compositions of the present invention was determined.
Forebrain taken from a male Spargue-Dawley rat was sliced and a 10-fold volume of cold sucrose solution ([…]) was added thereto. The resulting mixture was homogenized (5 strokes) using a Teflon-glass homogenizer, and then centrifuged at 1000 g (10 min., 4° C.). The supernatant was centrifuged at 20000 g (20 min., 4° C.) to obtain a precipitate, a 20-fold volume of cold distilled water was added thereto and homogenized using Brinkman Polytron Homogenizer. […] The protein content was measured according to Bradford method and the protein concentration of suspension was adjusted to 1 mg/ml, divided into several fractions and kept at −70° C. […]

A further experiment relates to Male rats. Kind of experiment: Passive-avoidance test after ethanol administration. The class given is in vivo, rat. The conditions noted are these: 250 mg/kg composition (Tacrine 2.5 mg/kg) daily for a week; 3 g/kg 50% ethanol oral before learning; tested 24 hours later, up to 300 seconds.

Method for Male rats: Male rats, each weighing about 18 to 20 g, were raised under a condition of temperature 22±1° C. and 12L/12D photoperiod for 7 days while being allowed free access to food and water and used in the Test after 3 days of acclimatization.
The passive avoidance test composed of consecutively learning and testing procedures was conducted over a period of 2 days (interval: 24hours) using PACS-30 shuttle box system (Columbus Instrument Co.).
30 minutes after the 7th (last) administeration, a 3 g/kg dose of 50% ethanol was orally administered to respective rats. After 1 hour, the rats were placed in the bright area of a room which was divided into a dark and bright areas by a guillotin door and allowed to stay there for 30 seconds (the searching time). The guillotin door was opened to let the rats move to the dark side of the room. […] The time the rats took to move from the bright side to the dark side was measured automatically. […]
24 hours after the learning procedure, test procedure was conducted as follows. After 30 seconds of the searching time and opening of the gillontin door, the time the test animal took to move from the bright side to the dark side (latency time) was measured up to the extent 300 seconds. […]

On to `C[N+]1(C)CCC(OC(=O)C(c2ccccc2)c2ccccc2)CC1` [4-DAMP methiodide], for which, in experiment [1], the IC50 is 24 nM.

Take `O=C(O)c1cc(=O)c2c(Cl)cc(Cl)cc2[nH]1` [5,7-DCKA, 5,7-Dichlorokynurenic acid]: the IC50 in experiment [2] turned out to be 1000 nM.

As to `Nc1c2c(nc3ccccc13)CCCC2` [Comparative group, 9-amino-1,2,3,4-tetrahydroacrine], in the experiment on Male rats, the “Latency Time” value is on record as 31 s.
